Patent US20200339544A1 (JOINT STOCK COMPANY "BIOCAD", priority 2017, published 2020)
pIC50: −log10 of the molar value. Where two headings read alike, the source gives them in different places. Marks after values point to notes of the source that are not given here.

Key:
HepG2 cells = assay: General cytotoxicity on HepG2 cells; format: cell-based; conditions: therapeutic index, CC50 HepG2 / IC50 H1975
How it was run: (§1)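 HepG2 cells seeded at 2*10^4 cells per well and compounds added in DMEM with 2% FBS for 72 h at 37 °C. Viability read with Alamar Blue and CC50 derived as for IC50. Therapeutic index taken as HepG2 CC50 over H1975 IC50.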

[1] = General cytotoxicity on HepG2 cells; format: cell-based; conditions: human; general cytotoxicity, HepG2 cells, 72 hours, average of several tests
How it was run: as §1

[2] = Chemical stability in simulated gastric fluid (SGF); format: physicochemical; conditions: SGF without enzymes, pH 1,4; 10 μm; 2 hours at 37° C.; substance amount remaining
Procedure: (§2) 1) Determination of chemical stability in simulated intestinal fluid, simulated gastric fluid and human blood plasma.
(§3) SGF concentrate without enzymes, pH=1,4 (Sigma Ireland, cat #01651) was used as simulated gastric fluid. Initial candidate solution (10 mM in DMSO) was diluted with a SGF working solution to a concentration of 10 μm (test solution). The test solution was incubated in a dry block thermostat for 2 hours at 37° C. SIF concentrate without enzymes, pH=6.5 (Sigma Ireland, cat #55331) was used as simulated intestinal fluid. Initial candidate solution (10 mM in DMSO) was diluted with a SIF working solution to a concentration of 10 μm (test solution). The test solution was incubated in a dry block thermostat for 2 hours at 37° C. HPLC with Agilent 1200 liquid chromatography system (Agilent, USA) was employed to determine peak areas of the compounds in test samples, said peak areas corresponding to the initial test time (prior to incubation) and the final test time (after incubation in a dry block thermostat for 2 hours at 37° C.). We used gradient elution (1 mL/min flow rate). Substance amount in % in a sample after thermostatting was determined.
(§4) The stability of the compounds was estimated.

[3] = tested on: HCC827 (lung adenocarcinoma, SM, exon19delE746-A750); assay: Antiproliferative activity on HCC827 cells (Alamar Blue); format: cell-based; conditions: Homo sapiens, antiproliferative test
Procedure: Antiproliferative activity of EGFR inhibitors (Tables 15 and 16) was measured in cell-based bioassay on continuous epithelial cell cultures: A549 (lung adenocarcinoma, ATCC® CRM-CCL-185™—WT), HCC827 (lung adenocarcinoma, ATCC® CRL-2868™—SM (SingleMutantEGFR, exon19delE746-A750)) and H1975 (lung adenocarcinoma, ATCC® CRL-5908™—DM (DoubleMutantEGFR, L828R/T790M)) using cell viability reagent Alamar Blue (ThermoFisher, # DAL1100). Cells were cultured in 10% FBS-supplemented (Gibco, #16140071) RPMI-1640 (PanEco, S330p) for at least 1 passage after thawing, washed with PBS and passaged in 96-well culture plates (3599, Corning) with RPMI-1640 growth medium supplemented with 2% FBS in an amount of 5*10^3 cells/well for A549, 10*10^3 cells/well for HCC827 and 15*10^3 cells/well for H1975 in 100 μL, and incubated at 37° C. in an incubator (Thermo Forma, USA) under 5% of CO2 for 16-18 h for cell attachment.
The test compounds were dissolved in DMSO in the selected range of concentrations and transferred to RPMI-1640 medium (PanEco, S330p) supplemented with 2% FBS. After adding 50 μl of the prepared dilutions to the cells, the incubation mixture contained the final concentrations of the test substances and no more than 1% DMSO. The plates were Incubated at 37° C. for 72 h. After incubation, 15 μl of Alamar Blue vital dye (ThermoFisher, # DAL1100) was added to each well. The plates were shaken on an orbital shaker (Biosan, Latvia) and further incubated for 3-5 h in a CO2 incubator (Thermo Forma, USA). Number of living cells was estimated using a plate spectrophotometer Infinite M200Pro, (Tecan, Switzerland) measuring fluorescent signal at the excitation wavelength (λEx) of 540 nm and emission wavelength (λEm) of 590 nm.
IC50 was calculated using Magellan 7.2 software (Tecan, Switzerland) approximating experimental points by four-parameter logistic model with the optimization by Levenberg-Marquardt.

[4] = tested on: A549 (lung adenocarcinoma, WT); assay: Antiproliferative activity on A549 cells (Alamar Blue); format: cell-based; conditions: Homo sapiens, antiproliferative test
How it was run: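 Viability read by Alamar Blue fluorescence (λEx 540, λEm 590 nm) 3-5 h after dye addition, following 72 h compound treatment at 37° C in 2% FBS RPMI-1640, ≤1% DMSO. Seeding 5*10^3 cells/well, 16-18 h attachment. Four-parameter logistic model gave IC50.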

[5] = tested on: H1975 (lung adenocarcinoma, DM, L828R/T790M); assay: Antiproliferative activity on H1975 cells (Alamar Blue); format: cell-based; conditions: for pIC50: Homo sapiens, NCI-H1975, H1975 cells; for SI IC50(A549)/IC50(DM): selectivity index, A549 vs H1975 cells
How it was run: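 IC50 was fitted with a four-parameter logistic model to Alamar Blue fluorescence (540/590 nm), read 3-5 h after dye addition. Before that, compounds acted on attached H1975 cells, 15*10^3 per well in 2% FBS RPMI-1640, for 72 h at 37 °C, DMSO no more than 1%.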

WT EGFR (Wild-Type EGFR) = target: T1, WT EGFR (Wild-Type EGFR) (Homo sapiens, UniProt P00533); assay: Inhibition of WT EGFR kinase activity (ADP-Glo); format: biochemical
T1 construct: purchased SignalChem
How it was run: (§5)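 Luminescent ADP-Glo readout was used for both wild-type and L858R/T790M EGFR, each run 180 minutes at 37° C. Reactions used a solution of 50 μM ATP with 0.5 mg/mL peptide substrate. Four-parameter logistic curves gave IC50.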

[6] = Chemical stability in simulated intestinal fluid (SIF); format: physicochemical; conditions: SIF without enzymes, pH 6.5; 10 μm; 2 hours at 37° C.; substance amount remaining
Procedure: as §2, §3, §4

[7] = target: T2, DM EGFR (DoubleMutantEGFR, L828R/T790M) (Homo sapiens, UniProt P00533, L858R/T790M); assay: Inhibition of DM EGFR kinase activity (ADP-Glo); format: biochemical; conditions: for pIC50: inhibition of kinase activity, EGFR DM (L828R/T790M); for SI, IC50(WT)/IC50(DM): selectivity index, kinase EGFR WT vs EGFR DM
T2 construct: purchased SignalChem
How it was run: as §5

[8] = Chemical stability in human blood plasma; format: in vitro ADME; conditions: pooled human blood plasma; 10 μm; 4 hours at 37° C.; substance amount remaining
How it was run: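 Percent of parent remaining was derived by comparing HPLC peak areas at time zero and after 4 h at 37 °C. Test compound was at 10 μM in human plasma pooled from ten donors, and proteins were precipitated with acetonitrile before analysis.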

[9] = average values obtained in several tests, Table 16, read-out: H1975 (DM) IC50
[10] = antiproliferative test, Table 15, read-out: IC50 H1975 (DM)

Structure (SMILES) | Stability in SGF, % [2] [%] | pIC50 [3] | pIC50 [4] | pIC50 [5, 9] | pIC50 [5, 10] | pIC50 (WT EGFR (Wild-Type EGFR)) | Stability in SIF, % [6] [%] | pIC50 [7] | SI, IC50(WT)/IC50(DM) [7] | Stability in blood plasma, % [8] [%] | TI, CC50/IC50 (HepG2 cells) | CC50 at 72 h [1] [nM] | SI IC50(A549)/IC50(DM) [5]
C=CC(=O)Nc1cc(Nc2nccc(C(=O)c3cccc(F)c3)n2)c(OC)cc1N(C)CCN(C)C [EGFR_3365_11, N-(2-((2-(dimethylamino)ethyl)(methyl)amino)-5-((4-(3-fluorobenzoyl)pyrimidin-2-yl)amino)-4-methoxyphenyl) acrylamide] | 100.0 | 8.21 | 4.91 | 6.45 | 6.45 | 6.77 | 100.0 | 8.19 | 26.43 | 85.4 | 43 | 15000 | 35.37
C=CC(=O)Nc1cc(Nc2nccc(C(=O)c3cccc(OC)c3)n2)c(OC)cc1N(C)CCN(C)C [EGFR_3365_32, N-(2-((2-(dimethylamino)ethyl)(methyl)amino)-4-methoxy-5-((4-(3-methoxybenzoyl)pyrimidin-2-yl)amino)phenyl)acrylamide] | 98.0 | 7.95 | 4.45 | 7.03 | 7.03 | 6.69 | 99.7 | 8.28 | 38.41 | 67.5 | 265 | 24800 | 376.12
C=CC(=O)Nc1cc(Nc2nccc(C(=O)c3ccccc3OC)n2)c(OC)cc1N(C)CCN(C)C [EGFR_3365_33, N-(2-((2-(dimethylamino)ethyl)(methyl)amino)-4-methoxy-5-((4-(2-methoxybenzoyl)pyrimidin-2-yl)amino)phenyl)acrylamide] | 99.5 | 8.23 | < 5.00 | 8.25 | 8.25 | 7.12 | 96.8 | 8.17 | 11.16 | 60.5 | 10285 | 57600 | >1786**
C=CC(=O)Nc1cc(Nc2nccc(C(=O)c3cccc([N+](=O)[O-])c3)n2)c(OC)cc1N(C)CCN(C)C [EGFR_3365_34] | 99.0 | 6.95 | 4.79 | 6.78 | 6.78 | 6.29 | 100.0 | 8.16 | 74.07 | 82.7 | 62 | 10300 | 98.26

Now from value to compound, other results behind:

Stability in SGF, % [2] [%] | pIC50 [3] | pIC50 [4] | pIC50 [5, 9] | pIC50 [5, 10] | pIC50 (WT EGFR (Wild-Type EGFR)) | Stability in SIF, % [6] [%] | pIC50 [7] | SI, IC50(WT)/IC50(DM) [7] | Stability in blood plasma, % [8] [%] | Structure (SMILES) | TI, CC50/IC50 (HepG2 cells) | CC50 at 72 h [1] [nM] | SI IC50(A549)/IC50(DM) [5]
100.0 | 7.54 | 5.12 | 7.24 | 7.24 | 6.33 | 89.8 | 7.66 | 21.03 | – | C=CC(=O)Nc1cc(Nc2cc(C(=O)c3ccc(N4CCOCC4)cc3)ccn2)c(OC)cc1N(C)CCN(C)C.O=C(O)C(F)(F)F [EGFR_3365_5, N-(2-((2-(dimethylamino)ethyl)(methyl)amino)-4-methoxy-5-((4-(4-morpholinobenzoyl)pyridin-2-yl)amino)phenyl)acrylamide 2,2,2-trifluoroacetate] | 309 | 17700 | 132.56
98.9 | 7.99 | 5.35 | 7.51 | 7.51 | 6.95 | 100.0 | 7.74 | 6.22 | 82.4 | C=CC(=O)Nc1cc(Nc2nccc(C(=O)c3ccc(Br)cc3)n2)c(OC)cc1N(C)CCN(C)C [EGFR_3365_13, N-(5-((4-(4-bromobenzoyl)pyrimidin-2-yl)amino)-2-((2-(dimethylamino)ethyl) (methyl)amino)-4-methoxyphenyl)acrylamide] | 460 | 14100 | 145.63
100.0 | 8.25 | 5.06 | 7.16 | 7.16 | 7.30 | 96.6 | 8.20 | 7.96 | – | C=CC(=O)Nc1cc(Nc2cc(C(=O)c3ccc(C)cc3)ccn2)c(OC)cc1N(C)CCN(C)C [EGFR_3365_57, N-(2-((2-(dimethylamino)ethyl)(methyl)amino)-4-methoxy-5-((4-(4-methylbenzoyl)pyridin-2-yl)amino)phenyl)acrylamide] | 328 | 22800 | 124
